Here are results for eleven compounds from ChEMBL document CHEMBL1201862, “PubChem BioAssay data set” (2004).

Each structure is given as a SMILES string.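 Where inhibition never reached the appropriate level, the endpoint shown equals the highest concentration tested. Otherwise, values were interpolated linearly from a five-concentration, 48-hour dose response in 96-well plates. Here, GI50 denotes the concentration required for 50% inhibition of growth.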 Active and inactive are the calls of the source. No stated cut-off is given here; in the data, active = GI50 up to about 1.1 µM and inactive = higher. Starred links: 1 amine or outer side, 2 acyl side, 3 side chain; linkers in the order of their positions; H or OH if unused. Non-standard residues stand in square brackets, D forms with d. Residues, ends and D or L forms follow the SMILES beside them. X4 = C[C@H](N[*:1])C(=O)C(C)(C)C(=O)[*:2]; Hmpa(2S,3S) = CC[C@H](C)[C@H](O)C(=O)O; NMeY = CN[C@@H](Cc1ccc(O)cc1)C(=O)O; NMeL = CN[C@@H](CC(C)C)C(=O)O; NMeV = CN[C@H](C(=O)O)C(C)C; βAla = NCCC(=O)O Where only a bound is given, the exact number is not on record here.

Holding throughout (assay): inhibition of tumour cell growth, NCI panel, 48 h
Assay [1] deals with A549.
For assay [2], the system named is EKVX.
Assay [3] deals with Hs-578T.
Assay [4] concerns LOX IMVI.
For assay [5], the system named is SF-295.
For assay [6], the system named is U-251.
Assay [7] deals with PC-3.
For assay [8], the system named is HT-29.
The subject of assay [9] is HCT-15.
Assay [10] relates to SK-MEL-2.
For assay [11], the system named is MDA-MB-435.
The test system of assay [12] is UO-31.
For assay [13], the system named is OVCAR-8.
The subject of assay [14] is NCI-H522.
Assay [15] deals with OVCAR-4.
In assay [16] the test system is K562.
For assay [17], the system named is Malme-3M.
Assay [18] concerns NCI-H226.
Assay [19] relates to SK-OV-3.
For assay [20], the system named is HL-60.

With `Cc1c2c(OCC3CCCCO3)nn(C)c(=O)c2c(C)n1-c1ccccc1` (centres undefined), the GI50 in assay [1] is 17.5 µM (inactive); in assay [2], 17.1 µM (inactive); in assay [3], 21.2 µM (inactive); in assay [4], 17.7 µM (inactive); in [5], 16.5 µM (inactive); in [6], 17.4 µM (inactive). Further, the GI50 in [7] was 19.7 µM (inactive); in [8] it was 31.6 µM (inactive); in [9] it was 17.1 µM; in assay [10], 24.1 µM (inactive); in assay [11], 18.3 µM (inactive); in assay [12], 16.6 µM (inactive). Moreover, the GI50 in [13] is 19.9 µM (inactive); in assay [14], 17 µM (inactive); in assay [15], 15.8 µM (inactive); in assay [16], 38.8 µM (inactive); in [17], 18.7 µM (inactive); in assay [18], 23.4 µM (inactive). Further, the GI50 in [19] is 18.3 µM (inactive).
Take `Cc1ccccc1-n1c(=O)nc2n(-c3ccc(C(C)(C)C)cc3)c3ccccc3cc-2c1=O`: the GI50 in [1] was 31.3 µM (inactive); in assay [2], 22.4 µM (inactive); in assay [20] it was 20.3 µM (inactive); in [3], 24.7 µM (inactive); in assay [4], 15.6 µM (inactive); in assay [5] it was 20.4 µM (inactive). Besides, the GI50 in [6] is 15 µM (inactive); in assay [7], 19.8 µM (inactive); in assay [8], 16.5 µM (inactive); in [9] it was 16.6 µM; in [10] it was 16.7 µM (inactive); in assay [11], 11.3 µM (inactive). Moreover, the GI50 in assay [12] was 26.4 µM (inactive); in assay [13], 17.1 µM (inactive); in assay [14] it was 21.7 µM (inactive); in [15], 26.5 µM (inactive); in assay [16], 37.8 µM (inactive); in [18], 18.8 µM (inactive).
For the compound `O=P1(c2ccccc2)c2ccccc2CCc2ccccc21`, the GI50 in assay [1] was 86.5 µM (inactive); in assay [2], 66.4 µM (inactive); in assay [20], 16.6 µM (inactive); in assay [3] it was > 100 µM (inactive); in assay [4], > 100 µM (inactive); in [5], 45.5 µM (inactive). Besides, the GI50 in assay [7] is 50.5 µM (inactive); in assay [9], 68.9 µM; in [10], 49.3 µM (inactive); in assay [11], 57.7 µM (inactive); in assay [12], 53.3 µM (inactive); in assay [13], > 100 µM (inactive). Besides, the GI50 in [14] is 37.1 µM (inactive); in assay [18] it was > 100 µM (inactive); in assay [19] it was 58.2 µM (inactive).
For the compound `CCOc1cccc(/C=N/N=C2\C(=O)Nc3c(Cl)cc(Cl)cc32)c1O`, the GI50 in assay [1] is > 100 µM (inactive); in assay [2], 5.97 µM (inactive); in [20] it was 33.4 µM (inactive); in assay [3] it was > 100 µM (inactive); in assay [4], 32.5 µM (inactive); in assay [5] it was 62.5 µM (inactive). Further, the GI50 is 46.5 µM (inactive) in assay [6]; 44.2 µM (inactive) in assay [7]; > 100 µM (inactive) in [8]; 54.6 µM in assay [9]; 83.8 µM (inactive) in assay [10]; 44.8 µM (inactive) in [11]. Besides, the GI50 in assay [12] is 34 µM (inactive); in assay [13] it was 60.5 µM (inactive); in [15], 62.8 µM (inactive); in assay [16], 41.1 µM (inactive); in [17], > 100 µM (inactive); in [18], > 100 µM (inactive). Also, the GI50 in assay [19] was > 100 µM (inactive).
Consider `COC(=O)C1c2cc3c(cc2C(OC2OC(C)C(OC)C(C)(OC)C2OC)CC1(C)O)C(=O)c1c(O)cc2c(c1C3=O)OC1OC2(C)C(O)C([N+](C)(C)[O-])C1O` (centres undefined), for which the GI50 was 0.227 µM (active) in assay [1]; 0.658 µM (active) in [2]; 0.286 µM (active) in assay [20]; 0.165 µM (active) in assay [3]; 0.0354 µM (active) in assay [4]; 0.269 µM (active) in [5]. The GI50 is 0.0386 µM (active) in assay [6]; 0.355 µM (active) in [7]; 0.173 µM (active) in [8]; 2.78 µM in [9]; 0.137 µM (active) in assay [10]; 0.158 µM (active) in assay [11]. The GI50 was 1.19 µM (inactive) in assay [12]; 0.0927 µM (active) in assay [13]; 0.055 µM (active) in assay [14]; 4.09 µM (inactive) in assay [15]; 0.0324 µM (active) in assay [16]; 0.0581 µM (active) in [17]. Further, in assay [19], the GI50 was 1.64 µM (inactive).
For `CC(=O)/C(=C\NC(N)=S)C(=O)Nc1ccccc1C`, the GI50 in assay [1], in assay [2], in [3], in [4], in assay [5] and in assay [6] was > 100 µM (inactive) in each case. Moreover, the GI50 in [7] is > 100 µM (inactive); in assay [8], > 100 µM (inactive); in assay [9], more than 100 µM; in assay [10] it was > 100 µM (inactive); in assay [11], > 100 µM (inactive); in assay [12], > 100 µM (inactive). The GI50 in assay [13], in assay [14], in assay [15], in [16], in assay [18] and in [19] was > 100 µM (inactive) each time.
For the compound `O=C(O)CSc1cc(-c2ccccc2)nc2ccccc12`, the GI50 is 55.5 µM (inactive) in assay [1]; > 100 µM (inactive) in [2]; 22.2 µM (inactive) in assay [20]; 19.4 µM (inactive) in assay [3]; 46 µM (inactive) in assay [4]; 45.5 µM (inactive) in assay [5]. Moreover, the GI50 is 32.5 µM (inactive) in [6]; 35.2 µM (inactive) in assay [7]; 36.2 µM (inactive) in assay [8]; 43.6 µM in assay [9]; 26.5 µM (inactive) in assay [10]; 13.3 µM (inactive) in assay [11]. Also, the GI50 is 42.8 µM (inactive) in assay [12]; 63.2 µM (inactive) in assay [13]; 22.6 µM (inactive) in assay [14]; 64 µM (inactive) in assay [15]; 33.3 µM (inactive) in assay [16]; 22.8 µM (inactive) in assay [17].
For `CN1C(=O)c2ccccc2NC(=O)C12O[C@@H]2c1cccc(O)c1` (some centres undefined), the GI50 in assay [1], in assay [2], in assay [20], in assay [3], in assay [4] and in [5] was > 100 µM (inactive) each time. Moreover, the GI50 was > 100 µM (inactive) in assay [6]; > 100 µM (inactive) in assay [7]; > 100 µM (inactive) in [8]; more than 100 µM in assay [9]; > 100 µM (inactive) in assay [10]; > 100 µM (inactive) in assay [11]. The GI50 in assay [12], in assay [13], in assay [14], in [15] and in assay [17] was > 100 µM (inactive) throughout.
As for `C1C2CC3CC1CC(Nc1nc(NC45CC6CC(CC(C6)C4)C5)nc(NC45CC6CC(CC(C6)C4)C5)n1)(C2)C3`, the GI50 in [1] is > 53 µM (inactive); in [2], > 43.5 µM (inactive); in assay [20] it was 39.3 µM (inactive); in assay [3], 43.4 µM (inactive); in assay [4] it was 11.1 µM (inactive); in assay [5], > 56.1 µM (inactive). The GI50 was 43.8 µM (inactive) in assay [6]; > 67.3 µM (inactive) in assay [7]; > 100 µM (inactive) in assay [8]; 62.1 µM in assay [9]; > 70 µM (inactive) in [10]; > 56.4 µM (inactive) in [11]. The GI50 in assay [12] was > 38.3 µM (inactive); in [13], > 26 µM (inactive); in assay [15], > 83 µM (inactive); in assay [16], > 62.5 µM (inactive); in assay [17], > 100 µM (inactive); in [18], > 100 µM (inactive). For the same compound, the GI50 in assay [19] was > 100 µM (inactive).
For `CCOC(=O)/C=C(/C(=O)OCC)n1cc(C)c(=O)n(Cc2cnnn2CCCCOC(C)=O)c1=O`, the GI50 in assay [1] is > 100 µM (inactive); in assay [2], 21.8 µM (inactive); in assay [3], 45.5 µM (inactive); in assay [4] it was 18.4 µM (inactive); in [5] it was > 100 µM (inactive); in assay [6], 32.4 µM (inactive). The GI50 in [7] is 68.5 µM (inactive); in assay [8], 19.2 µM (inactive); in [9], 12.6 µM; in assay [10] it was 86.9 µM (inactive); in assay [11], 21.2 µM (inactive); in [12], 18.4 µM (inactive). In addition, the GI50 in assay [13] was 22.8 µM (inactive); in assay [14], 3.21 µM (inactive); in assay [15], 48.5 µM (inactive); in [16], 18.7 µM (inactive); in assay [18], > 100 µM (inactive); in [19] it was > 100 µM (inactive).
As to `CC[C@H](C)[C@@H]1OC(=O)CCNC(=O)[C@@H](C)NC(=O)C(C)(C)C(=O)[C@H](C)NC(=O)[C@H](Cc2ccc(OC)cc2)N(C)C(=O)[C@H](C(C)C)N(C)C(=O)CNC(=O)[C@H](CC(C)C)N(C)C(=O)CNC1=O` (cyclo(G[NMeL]G[NMeV][NMeY](Me)[X4][dA][βAla][Hmpa(2S,3S)])), the GI50 in assay [1] was 0.37 µM (active); in assay [2], 3.24 µM (inactive); in assay [3] it was 0.916 µM (active); in [4] it was 0.175 µM (active); in assay [5], 0.306 µM (active); in assay [6], 0.0855 µM (active). For the same compound, the GI50 was 0.31 µM (active) in [7]; 1.84 µM (inactive) in assay [8]; 1.63 µM in assay [9]; 0.222 µM (active) in assay [10]; 0.953 µM (active) in assay [11]; 7.76 µM (inactive) in [12]. Further, the GI50 in [13] is 3.58 µM (inactive); in [14] it was 0.0295 µM (active); in [15], 0.284 µM (active); in assay [16], 0.0389 µM (active); in [17], 0.217 µM (active); in assay [18], 5.92 µM (inactive). For the same compound, the GI50 in assay [19] was 0.294 µM (active).
